Assay results published in patent US6710040B1, “Fluorinated cyclic amides as dipeptidyl peptidase IV inhibitors” (Pfizer Inc., priority 2002, dated 2004).
Counter-ions that a name gives are not always drawn.

melting point	Structure (SMILES)
195 to 198 °C	CC[C@H](C)[C@H](N)C(=O)N1CCC(F)(F)C1 [Example 8, (2S,3S)-2-Amino-1-(3,3-difluoro-pyrrolidin-1-yl)-3-methyl-pentan-1-one]
238 to 240 °C	N[C@H](C(=O)N1CC(F)C1)C1CCCCC1 (as salt: hydrochloride) [Example 5, (S)-2-Amino-2-cyclohexyl-1-(3-fluoro-azetidin-1-yl)-ethanone]
> 250 °C	C[C@H](N)C(=O)N1CC(F)(F)C(F)(F)C1.Cl
234 to 238 °C	CC(C)[C@H](N)C(=O)N1CC(F)(F)C(F)(F)C1 (as salt: hydrochloride) [Example 6, (S)-2-Amino-3-methyl-1-(3,3,4,4-tetrafluoro-pyrrolidin-1-yl)-butan-1-one]
220 °C (dec.)	Cl.N[C@H](C(=O)N1CC(F)(F)C1)C1CCCCC1
> 250 °C	CC[C@@H](C)[C@H](N)C(=O)N1CC(F)(F)C(F)(F)C1 (as salt: hydrochloride) [Example 4, (2S,3R)-2-Amino-3-methyl-1-(3,3,4,4-tetrafluoro-pyrrolidin-1-yl)-pentan-1-one]
208 to 210 °C	CC[C@H](C)[C@H](N)C(=O)N1CC(F)C1 (as salt: hydrochloride) [Example 2, (2S,3S)-2-Amino-1-(3-fluoro-azetidin-1-yl)-3-methyl-pentan-1-one]
196 to 198 °C	CC[C@@H](C)[C@H](N)C(=O)N1CCC(F)(F)C1 [Example 7, (2S,3R)-2-Amino-1-(3,3-difluoro-pyrrolidin-1-yl)-3-methyl-pentan-1-one]
195 °C (dec.)	CCC(C)[C@H](N)C(=O)N1CC(F)(F)C1.Cl (some centres unmarked)
190 to 192 °C	CCC(C)[C@H](N)C(=O)N1CCC(F)(F)CC1.Cl (some centres unmarked)
278 °C	N[C@H](C(=O)N1CC(F)(F)C(F)(F)C1)C1CCCCC1 (as salt: hydrochloride) [Example 3, (S)-2-Amino-2-cyclohexyl-1-(3,3,4,4-tetrafluoro-pyrrolidin-1-yl)-ethanone]
